Results as given in patent US10617701B2, “Nutritional compositions containing phosphatidylethanolamine, sphingomyelin and docosahexaenoic acid” (Mead Johnson Nutrition Company, priority 2015, dated 2020).

Tests used:
[1] = system: embryonic mouse cortical cells; assay: Functional neuronal maturation of cortical networks on microelectrode arrays (MEA recording, chronic treatment); type: cell-based; details: for acute effect on neuronal network activity in vitro: cortical networks on MEAs
Description: Cortical cells were grown on multi-well microelectrode arrays (MEAs) and treated with 10 different experimental series, including different combinations of test agents (PE, SM, LF and DHA) and the activity was recoded at 4 different time points during the 4 weeks of functional neuronal maturation Cells growing on glass slides were treated in parallel for morphological and cell population analysis. These experiments aimed to elucidate whether the test compounds affect the functional and morphological neuronal maturation […] (see FIG. 1).
All experiments were performed according to the standard operating protocols (SOPs): “SOP Preparation Frontal Cortex Mouse—Serum,” “SOP Solutions for Neuronal Cell Culture,” “SOP Cleaning and Substrate Preparations of MEAs,” “SOP Feeding neuronal cell culture,” “SOP Cell culture preparation MEAs,” “SOP Plexon Recording,” “SOP Plexon Data Analysis.”
Microelectrode Array Neurochips: THE MEA neurochips were provided by the Center for Network Neuroscience (CNNS) at the University of North Texas. These 5×5 cm^2 glass chips have a dual recording matrix with 32 passive electrodes per matrix and indium tin oxide conductors. The hydrophobic insulation material surface was activated by a brief butane flame pulse through a stainless steel mask. Thus, cell attachment on a confined adhesive region (5 mm diameter centered on the electrode array) is ensured. The activated surface regions were coated with poly-D-lysine (25 microgram/mL; 30-70 kD) and incubated overnight. […]
Primary cell culture for MEA recordings: In brief, frontal cortex tissue was harvested from embryonic day […] NMRI mice. […] Cultures on MEAs were incubated at 37° C. in a 10% CO2 atmosphere until ready for use, which usually is four weeks to three months after seeding. […]
Multichannel Recording: After establishing a stable activity pattern after 4 weeks, the neuronal networks on MEA chips are employed for substance testing. […] The signals routinely recorded by these neurochips are located in a range of 15-1800 […] . […]

[2] = system: embryonic mouse cortical cells; assay: Immunocytochemistry / fluorescence image analysis of neuronal network morphology (neuron number, % neurons, synaptic density); type: cell-based; details: chronic treatment over 4 weeks
Description: Primary Cell culture for immunocytochemistry and Fluorescence staining: The chronically treated cultures were grown on 24-well plates on 13 mm glass cover slides and cultured with PNGM medium including 5% FCS and gentamycin+ampicillin. The cells were treated 2× per week during ⅓ medium exchange. The complete concentration of phospholipids was replenished every time.
Immunocytochemistry and Fluorescence staining: These 24 well-plate cultures were analyzed by immunocytochemistry, fluorescence microscopy and semiautomatic quantitative image analysis at 7, 14, 21, and 28 days. […] Cortical networks were embedded with Prolong anti-fade gold (Invitrogen, Darmstadt, Germany) and images acquired with an upright fluorescence microscope (Nikon Eclipse TE200, NikonAG, Tokyo, Japan).
Image analysis: These images were analyzed by semi-automatic image quantification tools (MS Excel macro-based in house analyses; ImageJ, Rawak Software, NIH, USA). […]
The repeated treatment with LF+PE+SM+DHA affects development of neuronal network morphology: The recorded networks were fixed after the final 28 div recording and immunostained for neuronal markers. Images were taken and the cell neuronal numbers quantified by semi-automatic image analyses.

Row | Substance | acute effect on neuronal network activity in vitro [1] | synaptic density [2] | developmental halt at later stages ([1]; repeated treatment 2x per week, DHA 20 μM, PE 100 nM, LF 300 nM, SM 100 nM, recorded at 7-10, 14, 21 and 28 div, FIG. 2)
1 | phosphatidylethanolamine [PE] | acutely affect neuronal network activity |  | 
2 | sphingomyelin [SM] | acutely affect neuronal network activity | able to increase the synaptic density | developmental halt at later stages
